We go through two compounds from PMC9822553 (iScience, 2023).

Type in all cases: cell-based
One test concerns SARS-CoV-2 strain FFM3. The test is described as follows: microbe, parasite or virus in culture. Particulars: Severe acute respiratory syndrome coronavirus 2, read-out: IC50 concentration.
The test system of test [1] is SARS-CoV-2 variant G614.
For test [2], the system named is SARS-CoV-2 variant G614. This is another data set of the same source.

With `CCC(CC)COC(=O)[C@H](C)N[P@](=O)(OC[C@H]1O[C@@](C#N)(c2ccc3c(N)ncnn23)[C@H](O)[C@@H]1O)Oc1ccccc1` [remdesivir], the IC50 in the test with SARS-CoV-2 strain FFM3 came to 500 nM.
`C[C@H](NC(=O)C(=O)Nc1ccccc1C(C)(C)C)C(=O)N[C@@H](CC(=O)O)C(=O)COc1c(F)c(F)cc(F)c1F` [emricasan]: the “effect on caspase 3/7 activity” value with SARS-CoV-2 variant G614 [1] is “suppressing caspase 3/7 activity”. Further, in the test with SARS-CoV-2 variant G614 [2], the “effect on SARS-CoV-2 replication and CPE formation” value is “did not interfere with SARS-CoV-2 replication and CPE formation”.
